The values below come from patent US20150191519A1, “VECTORS ENCODING A PARALYTIC PEPTIDE” (Soricimed Biopharma Inc., priority 2002, published 2015).

The nature of data set [1]: isoelectric pH by capillary isoelectric focusing. The class given is physicochemical. As to conditions: migration time 33.9 min; calibrated with pI standard proteins. The procedure:
The isoelectric pH of the shrew peptide soricidin was determined after calibration of the Beckmann-Coulter P/ACE MDQ Capillary Electrophoresis System with proteins of known isoelectric pH (2.75, 5.10, 5.90 and 9.45) and then co-isoelectric focusing of the standards with soricidin. […] The soricidin migration time (33.9 min) provided a pI of 4.20.

The subject of a further data set is insect nerve tissue. Kind of data set: calcium ion uptake by excised insect nerve tissue (FURA fluorescence). The format is cell-based, flour beetle larvae (meal worms). As to conditions: FIG. 17. How it is done: Central nerve pairs running along 5 body segments (including ganglia) were excised from flour beetle larvae (meal worms) and suspended in buffered invertebrate saline containing FURA 2 AM. After 60 minutes, the nerve tissue was removed from this solution, briefly washed in buffered saline and bathed with a solution of pure soricidin for 10 minutes. The nerve tissue was next immersed in a cuvette containing very low calcium ion concentration and a baseline fluorescence value recorded. A bolus of calcium chloride (to a final concentration of 5 mM) was added and, after 5 minutes, the fluorescence was determined. Finally, a bolus of potassium chloride was added to the preparation to a final concentration of 20 mM. The fluorescence was again determined. The control situation was exclusion of the soricidin, substituting instead a sham solution of buffered saline.

Data set [2] has as its system human ovarian carcinoma cell line (OV 2008). The data set can be described thus: calcium ion uptake by FURA-loaded ovarian carcinoma cells (fluorescence). The format is cell-based. As to conditions: for calcium uptake by OV-2008 cell line: FURA fluorescence after calcium chloride 2.5 mM, calcium chloride 5.0 mM, FIG. 16. How it is done:
A human ovarian carcinoma cell line (OV 2008) was grown in MegaCell supplemented (Sigma Aldrich Chemical Co.) with 3% fetal calf serum (v/v), L-glutamine (584 mg/500 mL), and antibiotics penicillin and streptomycin (50 ug/ml) at 37° C. and in a humidified 5% carbon dioxide atmosphere. After confluence, the cells were harvested by incubation with Trypsin EDTA solution low in calcium and magnesium Dulbecco phosphate buffered saline (DPBS) at 37° C. and gentle shaking to detach them from the culture flask surface. After centrifugation and washing in the calcium-depleted medium, cells were incubated with 5 uM FURA 2 AM for 60 minutes to internalize this calcium sensitive fluorophore. After centrifuging and washing twice with DPBS, cells were allowed to de-esterify the FURA 2 AM for 30 minutes at 37° C., activating the calcium-sensitive FURA. Cells were then incubated with aliquots of a solution of pure soricidin. Fluorescent analysis used excitation at 340 nm and emission at a wavelength of 510 nm. After recording the baseline fluorescence of the cells, a bolus of calcium chloride (to final concentration of 2.5 mM) was delivered to the cell suspension and the fluorescence remeasured. After recording the fluorescence, the sample was treated with a bolus of potassium chloride (final concentration 20 mM) to activate any voltage gated calcium channels. Finally, the cells were treated with another bolus of […] raising the calcium ion concentration to 5.0 mM. The control situation was no treatment with soricidin peptide but with identical other treatments.
This transient receptor potential (TRP) calcium channel was blocked by soricidin. FIG. 16 illustrates

As for “soricidin: 54 amino acid paralytic peptide isolated from shrew (Blarina brevicauda) submaxilary saliva gland, sequence of FIG. 1A (DCSQDCAACSILARPAELNTETCILECEGKLSSNDTEGGLCKEFLHPSKVDLPR; listed as Blarina brevicauda)”, the “isoelectric pH (pI)” value in data set [1] turned out to be 4.20. Also, the “calcium uptake / calcium channels of insect neural tissue” value in the data set with insect nerve tissue is “effectively blocks the general and voltage-gated calcium channels”; in the data set on insect nerve tissue (listed as Soricidin), “inhibits calcium uptake”. In addition, the “increase in fluorescence (FURA/Calcium complex) less than in control” value in the data set with insect nerve tissue (nerve bathed in pure soricidin 10 minutes, calcium chloride and KCl 20 mM challenge) is recorded as 92%. The “calcium uptake by OV-2008 cell line” value in data set [2] (KCl 20 mM) is on record as “inhibits calcium uptake”; in data set [2] (KCl 20 mM, listed as Soricidin), “strongly inhibits calcium uptake”. The “TRP calcium channel CaT1 (TRPV6) of ovarian carcinoma cells” value in data set [2] (OV-2008) is “blocked”. Further, the “small increase in calcium uptake in response to potassium ion challenge” value in data set [2] (OV-2008, KCl 20 mM) is recorded as “eliminated”. Also, in data set [2] (OV-2008, increases in amount caused no additional inhibition), the “dose dependence of inhibition of calcium uptake” value is recorded as “saturated”.
